Assay type in all cases: in vivo
The subject of assay [1] is Botryosphaeria dothidea. The assay can be described thus: In-vitro inoculation of sorbitol-soaked mature "Red delicious" apple fruits with ring rot fungus. As to the method:
(§1) A fungus block of Botrvosphaeria dothidea was inoculated in a potato dextrose agar (PDA) medium by a puncher having a diameter of 5 mm, and inverted and cultured in the dark at 28° C. for 10 days.
S21: An in-vitro inoculation method was adopted for identifying disease resistance of the “Red delicious” apple fruits; and 6 treatments were set as follows:
S22: Surfaces of mature “Red delicious” fruits (within 140 days after flowering) were disinfected with 0.1% of sodium hypochlorite; and the fruits were fully washed with sterilized deionized water, aired and stood at 25° C. for 12 h for later use.
S23: The “Red delicious” fruits of the same size were selected and respectively soaked in the sterilized deionized water, the sorbitol solution of 100 mM, the sorbitol solution of 150 mM, the sorbitol solution of 200 mM and the sorbitol solution of 300 mM; and 10 fruits were treated in each treatment. The apples were taken out within 3 h after treatment; surface liquid was wiped up; middle parts of the surfaces of the apple fruits were punctured by sterilized toothpicks at a depth of 5 mm: 0.02 g of Botryosphaeria. dothidea hyphae having vigorous and consistent growth within 10 days was added into the punctured parts; and the single pathogenic fungus inoculation treatment was taken as control. After inoculation, the “Red delicious” fruits were cultured in a thermostatic incubator at 28° C. in the dark. A disease spot diameter served as a measurement standard of the incidence degree of the apple fruits; diameters of 5 points of each disease spot were measured; and the mean value was taken as the result. Since 3 d after treatment, disease spot diameters of the apple fruits in different treatments were photographed and recorded every day; and the diameters were continuously recorded for 4 d. A significance level of disease spot size differences among the treatment groups was calculated according to analysis of variance.

Assay [2] relates to Botryosphaeria dothidea. The assay can be described thus: In-vitro inoculation of sorbitol-soaked mature "Fuji" apple fruits with ring rot fungus. As to the method: as §1
S31: An in-vitro inoculation method was adopted for identifying disease resistance of the “Fuji” apple fruits; and 6 treatments were set as follows:
S32: Surfaces of mature “Fuji” fruits (within 180 days after flowering) were disinfected with 0.1% of sodium hypochlorite; and the fruits were fully washed with sterilized deionized water, aired and stood at 25° C. for 12 h for later use.
S33: The “Fuji” fruits of the same size were selected and respectively soaked in the sterilized deionized water, the sorbitol solution of 100 mM, the sorbitol solution of 150 mM, the sorbitol solution of 200 mM and the sorbitol solution of 300 mM; and 10 fruits were treated in each treatment. The apples were taken out within 3 h after treatment; surface liquid was wiped up; middle parts of the surfaces of the apple fruits were punctured by sterilized toothpicks at a depth of 5 mm; 0.02 g of Botryosphaeria dothidea hyphae having vigorous and consistent growth within 10 days was added into the punctured parts; and the single pathogenic fungus inoculation treatment was taken as control. After inoculation, the “Fuji” fruits were cultured in a thermostatic incubator at 28° C. in the dark. A disease spot diameter served as a measurement standard of the incidence degree of the apple fruits; diameters of 5 points of each disease spot were measured; and the mean value was taken as the result. Since 3 d after treatment, disease spot diameters of the apple fruits in different treatments were photographed and recorded every day; and the diameters were continuously recorded for 4 d. A significance level of disease spot size differences among the treatment groups was calculated according to analysis of variance.

In assay [3] the test system is Botryosphaeria dothidea. The assay can be described thus: In-vitro inoculation of sorbitol-soaked mature "Gala" apple fruits with ring rot fungus. The method, then: as §1
S41: An in-vitro inoculation method was adopted for identifying disease resistance of the “Gala” apple fruits, and 6 treatments were set as follows:
S42: Surfaces of mature “Gala” fruits (within 120 days after flowering) were disinfected with 0.1% of sodium hypochlorite; and the fruits were fully washed with sterilized deionized water, aired and stood at 25° C. for 12 h for later use.
S43: The “Gala” fruits of the same size were selected and respectively soaked in the sterilized deionized water, the sorbitol solution of 100 mM, the sorbitol solution of 150 mM, the sorbitol solution of 200 mM and the sorbitol solution of 300 mM; and 10 fruits were treated in each treatment. The apples were taken out within 3 h after treatment; surface liquid was wiped up; middle parts of the surfaces of the apple fruits were punctured by sterilized toothpicks at a depth of 5 mm; 0.02 g of Botryosphaeria dothidea hyphae having vigorous and consistent growth within 10 days was added into the punctured parts; and the single pathogenic fungus inoculation treatment was taken as control. After inoculation, the “Gala” fruits were cultured in a thermostatic incubator at 28° C. in the dark. A disease spot diameter served as a measurement standard of the incidence degree of the apple fruits; diameters of 5 points of each disease spot were measured; and the mean value was taken as the result. Since 3 d after treatment, disease spot diameters of the apple fruits in different treatments were photographed and recorded every day; and the diameters were continuously recorded for 4 d. A significance level of disease spot size differences among the treatment groups was calculated according to analysis of variance.

Assay [4] deals with Botryosphaeria dothidea. Nature of the assay: In-vitro inoculation of sorbitol-soaked mature "Golden delicious" apple fruits with ring rot fungus. The method, then:
as §1
S51: An in-vitro inoculation method was adopted for identifying disease resistance of the “Golden delicious” apple fruits; and 6 treatments were set as follows:
S52: Surfaces of mature “Golden delicious” fruits (within 135 days after flowering) were disinfected with 0.1% of sodium hypochlorite; and the fruits were fully washed with sterilized deionized water, aired and stood at 25° C. for 12 h for later use.
S53: The “Golden delicious” fruits of the same size were selected and respectively soaked in the sterilized deionized water, the sorbitol solution of 100 mM, the sorbitol solution of 150 mM, the sorbitol solution of 200 mM and the sorbitol solution of 300 mM; and 10 fruits were treated in each treatment. The apples were taken out within 3 h after treatment; surface liquid was wiped up; middle parts of the surfaces of the apple fruits were punctured by sterilized toothpicks at a depth of 5 mm; 0.02 g of Botryosphaeria dothidea hyphae having vigorous and consistent growth within 10 days was added into the punctured parts; and the single pathogenic fungus inoculation treatment was taken as control. After inoculation, the “Golden delicious” fruits were cultured in a thermostatic incubator at 28° C. in the dark. A disease spot diameter served as a measurement standard of the incidence degree of the apple fruits; diameters of 5 points of each disease spot were measured; and the mean value was taken as the result. Since 3 d after treatment, disease spot diameters of the apple fruits in different treatments were photographed and recorded every day; and the diameters were continuously recorded for 4 d. A significance level of disease spot size differences among the treatment groups was calculated according to analysis of variance.

Where [5] appears, read: sorbitol solution of 200 mM, soak 3 h, 6 d after inoculation.
Setting [6] is: sorbitol solution of 300 mM, 6 d after inoculation.
[7] abbreviates: sorbitol solution soak 3 h, 3-6 d after inoculation.

Take `OC[C@@H](O)[C@@H](O)[C@H](O)[C@@H](O)CO` [sorbitol, D-Sorbitol]: the optimum treatment concentration in the assay with Botryosphaeria dothidea [1] is 200 mM; in the assay on Botryosphaeria dothidea [2], 150 mM; in the assay with Botryosphaeria dothidea [3], 200 mM; in the assay with Botryosphaeria dothidea [4] it was 200 mM. The disease spot diameter in the assay on Botryosphaeria dothidea [1] (setting [5]) came out at 0.76 cm; in the assay on Botryosphaeria dothidea [2] (sorbitol solution of 150 mM, soak 3 h, 6 d after inoculation) it was 1.86 cm. Moreover, the “disease spot diameter versus 200 mM treatment” value with Botryosphaeria dothidea [1] (setting [6]), with Botryosphaeria dothidea [3] (setting [6]) and in the assay with Botryosphaeria dothidea [4] (setting [6]) was “no significant difference” throughout. Also, the “increase rate of the disease spot diameters compared with the control” value in the assay with Botryosphaeria dothidea [1] (setting [7]), in the assay with Botryosphaeria dothidea [2] (setting [7]), in the assay with Botryosphaeria dothidea [3] (setting [7]) and in the assay with Botryosphaeria dothidea [4] (setting [7]) was “significantly decreased” each time. Besides, the “disease spot diameter versus 150 mM treatment” value in the assay on Botryosphaeria dothidea [2] (sorbitol solution of 200 mM, 6 d after inoculation) is given as “no significant difference”; with Botryosphaeria dothidea [2] (setting [6]), “no significant difference”. The “average disease spot diameter” value in the assay on Botryosphaeria dothidea [3] (setting [5]) is 1.89 cm; in the assay with Botryosphaeria dothidea [4] (setting [5]) it was 1.70 cm.
